Test results: patent publication US20230233541A1, “SUBSTITUTED BENZAMIDES AS MODULATORS OF TREX1” (Constellation Pharmaceuticals, Inc., priority 2020, published 2023)

Key:
[1] = molecular target: T1, human TREX2 (residues M44-A279) (Homo sapiens, UniProt Q9BQ50); test: TREX2 Biochemical Assay (fluorescence assay, degradation of dsDNA substrate); settings: 2.5 nM TREX2, 60 nM dsDNA substrate, 25 minutes at room temperature; read-out: hTREX2 EC50
T1 construct: human TREX2 (residues M44-A279, expressed in E. coli); His-Tev (His tag with TEV protease site) (N); made in house; host or cells: E. coli
T1 sequence (Q9BQ50 44-279 isoform Q9BQ50-1): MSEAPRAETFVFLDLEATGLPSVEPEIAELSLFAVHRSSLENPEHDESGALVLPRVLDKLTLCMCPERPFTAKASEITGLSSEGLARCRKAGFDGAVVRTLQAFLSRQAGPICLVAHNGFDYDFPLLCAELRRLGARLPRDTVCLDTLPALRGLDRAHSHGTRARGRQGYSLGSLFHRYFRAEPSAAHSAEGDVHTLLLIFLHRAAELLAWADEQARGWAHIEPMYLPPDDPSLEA
Procedure, shortened: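 His-Tev-tagged human TREX2 (M44-A279, E. coli-expressed) at 2.5 nM final, with 60 nM TEX615/quencher-labelled dsDNA in pH 7.4 Tris buffer with MgCl2 and 1.0% DMSO, 10-point dose-response, 25 min at room temperature, then EDTA quench. Fluorescence read at 615 nm (ex 570 nm). IC50 from four-parameter fit against pre-quenched and no-inhibitor controls.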

full length human TREX1 = molecular target: T2, full length human TREX1 (Homo sapiens, UniProt Q9NSU2); test: TREX1 Biochemical Assay (fluorescence assay, degradation of dsDNA substrate); settings: 150 pM TREX1, 60 nM dsDNA substrate, 25 minutes at room temperature; read-out: hTREX1 EC50
T2 construct: N-terminally His-Tev tagged full length human TREX1; His-Tev (His tag with TEV protease site) (N); made in house; host or cells: E. coli
T2 sequence (Q9NSU2 1-314): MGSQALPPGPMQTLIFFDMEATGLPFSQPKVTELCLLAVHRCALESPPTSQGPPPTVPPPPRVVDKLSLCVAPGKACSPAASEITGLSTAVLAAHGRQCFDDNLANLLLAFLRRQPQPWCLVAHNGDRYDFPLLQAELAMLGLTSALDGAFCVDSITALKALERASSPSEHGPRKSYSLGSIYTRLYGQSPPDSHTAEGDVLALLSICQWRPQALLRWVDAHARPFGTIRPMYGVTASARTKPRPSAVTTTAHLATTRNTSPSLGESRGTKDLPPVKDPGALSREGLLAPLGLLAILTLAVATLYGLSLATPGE
Procedure, shortened: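 E. coli-expressed His-Tev-tagged full-length TREX1 (150 pM) with 60 nM quenched-fluorophore dsDNA in Tris pH 7.4, 150 mM NaCl, 100 mM MgCl2, 1% DMSO, 25 min room temperature, 10-point dose-response. EDTA stop; fluorescence 615 nm (ex 570 nm); IC50 from four-parameter fit against pre-quenched and no-inhibitor controls.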

| SMILES | EC50 [1] | EC50 (full length human TREX1) |
| --- | --- | --- |
| O=C(c1cccc(F)c1)N(CCc1ccccc1)Cc1cccnc1 [Compound 131] | > 100 µM | > 10 µM |
| O=C(c1cccc(F)c1)N(Cc1cccnc1)CC1CCCCC1 [Compound 132] | > 100 µM | > 10 µM |
| O=C(c1cccc(F)c1)N(CCc1ccc(Cl)cc1Cl)Cc1cccnc1 [Compound 133] | > 100 µM | > 10 µM |
| O=C(c1cccc(F)c1)N(Cc1cccnc1)C1Cc2ccccc2C1 [Compound 134] | > 100 µM | > 10 µM |
| Cc1cccc(CN(Cc2cccnc2)C(=O)c2cccc(F)c2)c1Cl [Compound 135] | 10 to 100 µM | 1 to 10 µM |
| O=C(c1cccc(F)c1)N(Cc1cccnc1)Cc1cccc(Cl)c1Cl [Compound 136] | 10 to 100 µM | 0.1 to 1 µM |
| O=C(c1cccc(F)c1)N(Cc1cccnc1)Cc1cccc(F)c1Cl [Compound 137] | 10 to 100 µM | 0.1 to 1 µM |
| O=C(c1cccc(F)c1)N(Cc1ccc(Cl)cc1)Cc1cccnc1 [Compound 138, N-[(4-chlorophenyl)methyl]-3-fluoro-N-[(pyridin-3-yl)methyl]benzamide] | > 100 µM | > 10 µM |
| O=C(c1cccc(F)c1)N(Cc1cccnc1)Cc1ccccc1Cl [Compound 139] | > 100 µM | 1 to 10 µM |
| Cc1nocc1C(=O)N(Cc1cccnc1)Cc1ccc(Cl)cc1Cl [Compound 140] | > 100 µM | > 10 µM |
| COC(=O)c1ccc(CN(Cc2ccc(Cl)cc2Cl)C(=O)c2cccc(F)c2)cn1 [Compound 141, methyl 5-({N-[(2,4-dichlorophenyl)methyl]-1-(3-fluorophenyl)formamido}methyl)pyridine-2-carboxylate] | > 100 µM | > 10 µM |
| O=C(O)c1ccc(CN(Cc2ccc(Cl)cc2Cl)C(=O)c2cccc(F)c2)cn1 [Compound 142, 5-({N-[(2,4-dichlorophenyl)methyl]-1-(3-fluorophenyl)formamido}methyl)pyridine-2-carboxylic acid] | 10 to 100 µM | 0.1 to 1 µM |
| NC(=O)c1ccc(CN(Cc2ccc(Cl)cc2Cl)C(=O)c2cccc(F)c2)cn1 [Compound 143, 5-({N-[(2,4-dichlorophenyl)methyl]-1-(3-fluorophenyl)formamido}methyl)pyridine-2-carboxamide] | > 100 µM | > 10 µM |
| CNC(=O)c1ccc(CN(Cc2ccc(Cl)cc2Cl)C(=O)c2cccc(F)c2)cn1 [Compound 144, 5-({N-[(2,4-dichlorophenyl)methyl]-1-(3-fluorophenyl)formamido}methyl)-N-methylpyridine-2-carboxamide] | > 100 µM | 1 to 10 µM |
| O=C(c1cccc(F)c1)N(Cc1ccc(CO)nc1)Cc1ccc(Cl)cc1Cl [Compound 145, N-(2,4-dichlorobenzyl)-3-fluoro-N-((6-(hydroxymethyl)pyridin-3-yl)methyl)benzamide] | 10 to 100 µM | 1 to 10 µM |
| Nc1ccc(CN(Cc2ccc(Cl)cc2Cl)C(=O)c2cccc(F)c2)cn1 [Compound 146, N-[(6-aminopyridin-3-yl)methyl]-N-[(2,4-dichlorophenyl)methyl]-3-fluorobenzamide] | > 100 µM | 1 to 10 µM |
| O=C(O)c1ccc(CN(Cc2cccc(Cl)c2Cl)C(=O)c2cccc(F)c2)cn1 [Compound 147] | 1 to 10 µM | < 0.1 µM |
| O=C(O)c1ccc(CN(Cc2cccc(Cl)c2Cl)C(=O)c2cc(F)cc(F)c2)cn1 [Compound 148] | < 1 µM | < 0.1 µM |
| NC(=O)c1ccc(CN(Cc2cccc(Cl)c2Cl)C(=O)c2cccc(F)c2)cn1 [Compound 149] | > 100 µM | > 10 µM |
| NC(=O)c1ccc(CN(Cc2cccc(Cl)c2Cl)C(=O)c2cc(F)cc(F)c2)cn1 [Compound 150] | > 100 µM | 1 to 10 µM |
| O=C(O)c1ccc(CN(Cc2ccccc2Cl)C(=O)c2cccc(F)c2)cn1 [Compound 151] | 10 to 100 µM | 0.1 to 1 µM |
| O=C(O)c1ccc(CN(Cc2ccccc2Cl)C(=O)c2cc(F)cc(F)c2)cn1 [Compound 152] | 1 to 10 µM | < 0.1 µM |

Now from value to compound:

| EC50 [1] | EC50 (full length human TREX1) | SMILES |
| --- | --- | --- |
| 10 to 100 µM | 0.1 to 1 µM | C[C@H](c1ccc(Cl)cc1Cl)N(Cc1cccnc1)C(=O)c1cccc(F)c1 [Compound 155] |
| > 100 µM | > 10 µM | C[C@@H](c1ccc(Cl)cc1Cl)N(Cc1cccnc1)C(=O)c1cccc(F)c1 [Compound 156] |
| > 100 µM | 1 to 10 µM | O=C(O)Cn1cc(CN(Cc2ccc(Cl)cc2Cl)C(=O)c2cc(F)cc(F)c2)cn1 [Compound 165, 2-(4-((N-(2,4-dichlorobenzyl)-3,5-difluorobenzamido)methyl)-1H-pyrazol-1-yl)acetic acid] |
| 1 to 10 µM | < 0.1 µM | CC[C@H](c1cccc(OC)c1Cl)N(Cc1ccc(C(=O)O)nc1)C(=O)c1cc(F)cc(F)c1 [Compound 166] |
| 1 to 10 µM | < 0.1 µM | CC[C@@H](c1cccc(OC)c1Cl)N(Cc1ccc(C(=O)O)nc1)C(=O)c1cc(F)cc(F)c1 [Compound 167] |
| 10 to 100 µM | 1 to 10 µM | O=C(O)c1ccc(CN(Cc2ccc(Cl)cc2Cl)C(=O)c2cc(F)cc(F)c2)cc1 [Compound 168] |
| 10 to 100 µM | 0.1 to 1 µM | O=C(c1cc(F)cc(F)c1)N(Cc1ccc(-c2nnn[nH]2)nc1)Cc1ccccc1Cl [Compound 169] |
| 10 to 100 µM | < 0.1 µM | O=C(c1cc(F)cc(F)c1)N(Cc1ccc(-c2ccn[nH]2)nc1)Cc1ccccc1Cl [Compound 170] |
| 10 to 100 µM | 0.1 to 1 µM | O=C(c1cc(F)cc(F)c1)N(Cc1ccc(-c2cnn[nH]2)nc1)Cc1ccccc1Cl [Compound 171] |
| 1 to 10 µM | < 0.1 µM | O=C(O)c1ccc(CN(Cc2ccccc2C(F)(F)F)C(=O)c2cc(F)cc(F)c2)cn1 [Compound 172] |
| 10 to 100 µM | 0.1 to 1 µM | C[C@H](c1cccc(Cl)c1Cl)N(Cc1ccc(C(=O)O)nc1)C(=O)c1cc(F)cc(F)c1 [Compound 173] |
| < 1 µM | < 0.1 µM | C[C@@H](c1cccc(Cl)c1Cl)N(Cc1ccc(C(=O)O)nc1)C(=O)c1cc(F)cc(F)c1 [Compound 174] |
| > 100 µM | 0.1 to 1 µM | O=C(c1cc(F)cc(F)c1)N(Cc1ccc(-n2cccn2)nc1)Cc1ccc(Cl)cc1Cl [Compound 175] |
| 1 to 10 µM | 0.1 to 1 µM | O=C(c1cc(F)cc(F)c1)N(Cc1cnccc1Cl)Cc1cnccc1Cl [Compound 176] |
| 10 to 100 µM | 0.1 to 1 µM | N#CCC[C@@H](c1ccccc1Cl)N(Cc1cccnc1)C(=O)c1cc(F)cc(F)c1 [Compound 177] |
| 10 to 100 µM | 1 to 10 µM | N#CCC[C@H](c1ccccc1Cl)N(Cc1cccnc1)C(=O)c1cc(F)cc(F)c1 [Compound 178] |
| 1 to 10 µM | 0.1 to 1 µM | O=C(c1cc(F)cc(F)c1)N(Cc1cccnc1CO)Cc1cccc(Cl)c1Cl [Compound 180] |
| 1 to 10 µM | 0.1 to 1 µM | O=C(c1cc(F)cc(F)c1)N(Cc1cnc2c(=O)[nH]c(=O)[nH]c2c1)Cc1cccc(Cl)c1Cl [Compound 181] |
| 10 to 100 µM | 1 to 10 µM | O=C1NCc2cc(CN(Cc3ccccc3Cl)C(=O)c3cc(F)cc(F)c3)cnc21 [Compound 182] |
| 10 to 100 µM | 0.1 to 1 µM | O=C(c1cc(F)cc(F)c1)N(Cc1cnc2c(=O)[nH]cnc2c1)Cc1ccccc1Cl [Compound 183] |
| 10 to 100 µM | 0.1 to 1 µM | Cn1ncc(CN(Cc2ccc(C(=O)O)nc2)C(=O)c2cc(F)cc(F)c2)c1Cl [Compound 184] |
| 10 to 100 µM | 0.1 to 1 µM | Cn1cc(CN(Cc2ccc(C(=O)O)nc2)C(=O)c2cc(F)cc(F)c2)c(C(F)(F)F)n1 [Compound 185] |
| 1 to 10 µM | < 0.1 µM | O=C(O)c1ccc(CN(Cc2c(Cl)cccc2Cl)C(=O)c2cc(F)cc(F)c2)cn1 [Compound 186] |
| 1 to 10 µM | < 0.1 µM | O=C(O)c1ccc(CN(Cc2cc(Cl)ccc2Cl)C(=O)c2cc(F)cc(F)c2)cn1 [Compound 187] |
| 1 to 10 µM | < 0.1 µM | COc1nccc(CN(Cc2ccc(C(=O)O)nc2)C(=O)c2cc(F)cc(F)c2)c1Cl [Compound 188] |
| 10 to 100 µM | 0.1 to 1 µM | COc1ccnc(CN(Cc2ccc(C(=O)O)nc2)C(=O)c2cc(F)cc(F)c2)c1Cl [Compound 189] |
| 1 to 10 µM | < 0.1 µM | O=C(O)c1ccc(CN(Cc2ncc3ccccc3c2Cl)C(=O)c2cc(F)cc(F)c2)cn1 [Compound 190] |
